Reference: patent US20080075796A1, “Compositions and Methods for Controlling Insects” (TyraTech, Inc., priority 2003, published 2008)

Key:
Carpenter ants [1] = test: Repellent effect on carpenter ants (treated filter paper); format: in vivo
Method: (§1) Adult insect are randomly selected for testing the repellent effect of compositions and are not individually marked. About 5 insects per replicate are used. About 3 replicates are used for each treatment. Untreated control tests are included with only solvent (acetone) application to an equal sized population/replications, held under identical conditions. A filter paper (about 80 cm^2) is treated with the composition (about 100 mg in […] acetone). After about 3 min of air drying, the filter paper is placed in a dish and repellency against insects is performed. Insects are released to the dish, one insect at a time at the far end of the dish. Using one or more stopwatches, the time spent on either the filter paper or the untreated surface of the dish is recorded up to about 300 seconds. Repellency ratio (RR) is calculated as follows: RR=[(time on control surface−time on treated surface)/total time of test]. If RR>0 then the composition is considered to have a repellant effect, that is to say, an effect, wherein more insects are repelled away from treated surface than the control surface; if RR<0 then the composition is considered not to have a repellant effect.
(§2) The repellent effect of various plant essential oils is tested by treating a filter paper with the test oils. After about five minutes at room temperature, the paper is placed in a dish and ants are introduced one at a time. The repellency is determined as described above, in Example 14. Oils are tested alone. Additionally, oils are mixed to form compositions, which are then tested.
For purposes of comparison to the repellent effect of various compositions made of various plant essential oils, the repellency of an insect control agent, the commercial repellent 29% DEET, which may be purchased under the name, REPEL® (Wisconsin Pharmacal Company, Inc, Jackson, Wyo.), is measured against Carpenter ants by treating a filter paper with the 29% DEET. After about five minutes at room temperature, the paper is placed in a dish and ants are introduced one at a time. The repellency is determined as described above, in Example 14.
as §2, with “of commercial repellent DEET and” for “of”

Carpenter ants [2] = test: as above; format: in vivo; conditions: DEET in concentrations of about 5 to 10%
Method: as §1
The repellent effect of various plant essential oils is tested by treating a filter paper with the test oils. […] The repellency is determined as described above, in Example 14. […]

red ants = test: Repellent effect on red ants (visits to treated paper disk); format: in vivo; conditions: for number of trips by red ants to treated paper disk: 100%
Method: Repellent effect of various compositions containing plant essential oils on red ants is tested in the following manner. A paper disk is treated with about 200 μl of each composition and placed in a dish. An untreated paper disk is placed in a control dish. Also, a paper disk is treated with about 200 μl 100% DEET and placed in a dish to compare the repellant effect of the compositions to that of DEET. Red ants are introduced into each dish. Insect behavior and number of visits to the treated paper disk are monitored for about 5 minutes. The number of visits by a red ant to the paper disk is recorded.
Residuality, with regard to pesticidal effect and repellent effect, is tested by treating a paper disk with the composition being tested, keeping the treated paper disk under laboratory conditions for a predetermined period of time (e.g., 0 min, 6 hours, 1 day, 3 days, 5 days, 7 days), and exposing red ants to the treated paper disk in the above described manners.

[3] = tested on: Drosophila melanogaster tyramine receptor (TyrR), SEQ ID NO: 2; test: Receptor-specific binding of 3H-tyramine in Schneider cells transfected with TyrR; conditions: whole cells, FIG. 1
From the text: Tyramine receptor is amplified from Drosophila melanogaster head cDNA phage library GH that is obtained through the Berkeley Drosophila Genome Project (Baumann, A., 1999, Drosophila melanogaster mRNA for octopamine receptor, splice variant 1B NCBI direct submission, Accession AJ007617). The nucleic acid sequence and the peptide sequence of TyrR are set forth in SEQ ID NO: 1 and SEQ ID NO: 2, respectively. Phage DNA is purified from this library using a liquid culture lysate. (Baxter, et al., 1999, Insect Biochem Mol Biol 29, 461-467). Briefly, oligonucleotides that are used to amplify the open reading frame of the Drosophila tyramine receptor (TyrR) (Han, et al., 1998, J Neurosci 18, 3650-3658; von Nickisch-Rosenegk, et al., 1996. Insect Biochem Mol Biol 26, 817-827) consist of the 5′ oligonucleotide: 5′[…] 3′ (SEQ ID NO: 7) and 3′ oligonucleotide: 5′taatctaga[…] […]
Cells transfected with the tyramine receptor (about 1×10^6 cells/ml) are cultured in each well of a multi-well plate. […] Solubilized cells are transferred into about 4 ml Liquid Scintillation Solution (LSS) and vigorously vortexed for about 30 sec before counting the radioactivity using a Liquid Scintillation β-counter (Beckman, Model LS1801) (LSC).
With reference to FIG. 1, receptor specific binding data is expressed as fmol specific binding per 1×10^6 cells and measured as a function of ^3H-tyramine concentration. […]

[4] = tested on: untransfected Schneider cells; test: Response of untransfected Schneider cells to tyramine; format: binding, Drosophila; conditions: concentration as high as about 100 μM
control Schneider cells = test: Intracellular Ca2+ mobilization in control Schneider cells; format: cell-based, Drosophila; conditions: FIG. 22
Method: Intracellular calcium ion concentrations ([Ca^2+]i) are measured by using the acetoxymethyl (AM) ester of the fluorescent indicator fura-2 (Enan, et al., Biochem. Pharmacol vol 51, 447-454). In this study, cells expressing tyramine receptor are grown under standard conditions. A cell suspension is prepared in assay buffer (140 mM NaCL, 10 mM HEPES, 10 mM glucose, 5 mM KCl, 1 mM CaCl2, 1 mM MgCl2) and cell number adjusted to about 2×10^6 cells per ml. Briefly, about 1.0 ml cell suspension (about 2×10^6 cells) is incubated with about 5 μM Fura 2/AM for about 30 min at about 28° C. After incubation, the cells are pelleted at about 3700 rpm for about 10 sec at room temperature and then resuspended in about 1.5 ml assay buffer. [Ca^2+]i changes are analyzed in spectrofluorometer in the presence and absence of test chemicals. Excitation wave lengths are about 340 nm (generated by Ca^2+-bound fura-2) and about 380 nm (corresponding to Ca^2+-free fura-2). The fluorescence intensity is monitored at an emission wave length of about 510 nm. No absorbance of fluorescence artifacts are observed with any of the compounds used. The ratio of about 340/380 nm is calculated and plotted as a function of time.
Changes in intracellular Ca^2+ levels are calculated based on the difference between the 340/380 fluorescence ratios before and after approximately 150 seconds of the treatment.

[5] = tested on: head lice Pediculus humanus capitus; test: Pesticidal effect on head lice; format: in vivo; conditions: time to kill 100% of the lice, dissolved in water
Method: (§3) Live adult head lice Pediculus humanus capitus are collected from female and male children between the age of about 4 and 11 living in the Karmos area, Alexandria, Egypt. The insects are collected using fine-toothed louse detector comb and pooled together. The collected lice are kept in dishes and used in the studies within about 30 minutes of their collection.
(§4) Various concentrations of the compositions being tested are prepared in water To allow the pesticidal effect of these compositions to be compared to that of a commercially available lice-killing agent, ivermectin, is dissolved in water. About 1 ml of each concentration of the compositions are applied to a dish, about 1 ml of the ivermectin solution is applied to a dish, and about 1 ml of water is applied to a control dish. About 10 adult head lice are introduced to each dish.
(§5) Treated and control dishes are kept under continuous observation and LT100 is observed. LT refers to the time required to kill a given percentage of insects; thus, LT100 refers to the time required to kill 100% of the lice. Head lice is considered dead if no response to a hard object is found.

[6] = tested on: head lice Pediculus humanus capitus; test: Pesticidal effect on head lice (LT100); format: in vivo; conditions: about 1 ml in dish, about 10 adult head lice
Method: as §3, §4, §5

## CCN(CC)C(=O)c1cccc(C)c1 [DEET]
Carpenter ants [1]; 5% DEET, Day 0
  Sec on T: 282 (10) Sec
Carpenter ants [1]; 10% DEET, Day 0
  Sec on T: 260 (6) Sec
Carpenter ants [1]; 29% DEET (REPEL), Day 0
  sec. on T surface: 02.4 s
Carpenter ants [1]; DEET about 5 to 10%, in words
  repellency: no signs of repellency
Carpenter ants [2]
  repellency: no signs of repellency
Red ants; 0 min after treatment of disk
  number of trips by the red ants to the treated paper disks: 0
Red ants; 100% DEET, in words
  residuality of repellent effect: begins to loose potency after 1 day
Red ants; 0 min after treatment, about 5 minutes observation
  number of trips by red ants to treated paper disk: 0
Red ants; 6 hours after treatment
  number of trips by red ants to treated paper disk: 0
Red ants; 1 day after treatment
  number of trips by red ants to treated paper disk: 1
Red ants; 3 days after treatment
  number of trips by red ants to treated paper disk: 2
Red ants; 5 days after treatment
  number of trips by red ants to treated paper disk: 2
Red ants; 7 days after treatment
  number of trips by red ants to treated paper disk: 2
Red ants; 6 hours after treatment of disk
  number of trips by the red ants to the treated paper disks: 0
Red ants; 1 day after treatment of disk
  number of trips by the red ants to the treated paper disks: 1
Red ants; 3 days after treatment of disk
  number of trips by the red ants to the treated paper disks: 2
Red ants; 5 days after treatment of disk
  number of trips by the red ants to the treated paper disks: 2
Red ants; 7 days after treatment of disk
  number of trips by the red ants to the treated paper disks: 2

## NCCc1ccc(O)cc1 [Tyramine, tyramine]
[3]
  3H-tyramine concentration at which maximum specific binding occurs: about 5 nM
[4]
  response of untransfected cells: do not respond
Control Schneider cells
  mobilization of Ca2+ in control cells: induce mobilization of Ca^2+

## ivermectin [listing 1 of 2 here]
[5]
  LT100: 5 min

## ivermectin [listing 2 of 2 here]
[6]
  LT100 (time required to kill 100% of the lice): 5 min
